Consider six compounds from patent publication US11667646B2, “Solid state forms of rucaparib and of rucaparib salts” (ASSIA CHEMICAL INDUSTRIES LTD., priority 2017, dated 2023).

Series [1] is described as follows: API mass increase of the salt vs. the free base.
The nature of series [2]: Solid state stability at controlled relative humidity, room temperature, open Petri dish. The format is physicochemical.
The nature of series [3]: Compressibility. The series is classed as physicochemical.
Series [4] in a line: Kinetic solubility at various pH ranges. The format is physicochemical.
The nature of series [5]: Hygroscopicity. The series is classed as physicochemical.
The mark [6] stands for this setting: 20-100% relative humidity (RH) at room temperature (RT) in open Petri dish.

Counter-ions that a name gives are not always drawn.

Take `CNCc1ccc(-c2[nH]c3cc(F)cc4c3c2CCNC4=O)cc1` [Rucaparib camsylate, 8-fluoro-2-{4-[(methylamino)methyl]phenyl}-1,3,4,5-tetrahydro-6H-azepino[5,4,3-cd]indol-6-one ((1S,4R)-7,7 dimethyl-2-oxobicyclo[2.2.1]hept-1-yl) methane-sulfonic acid salt, reference compound]: the “API mass increase of the salt vs. the free base” value in series [1] is recorded as 72%.
`CNCc1ccc(-c2[nH]c3cc(F)cc4c3c2CCNC4=O)cc1` [Crystalline Form II of Rucaparib base, 8-fluoro-2-{4-[(methylamino)methyl]phenyl}-1,3,4,5-tetrahydro-6H-azepino[5,4,3-cd]indol-6-one]: in series [1], the “API mass increase of the salt vs. the free base” value was “no API mass increase”. For the same compound, the period of stability entry in series [2] (20-40% relative humidity (RH) at room temperature (RT) in open Petri dish) is “at least 1 month”.
`CNCc1ccc(-c2[nH]c3cc(F)cc4c3c2CCNC4=O)cc1.Cc1ccc(S(=O)(=O)O)cc1` [8-fluoro-2-{4-[(methylamino)methyl]phenyl}-1,3,4,5-tetrahydro-6H-azepino[5,4,3-cd]indol-6-oneTosylate]: the compressibility properties entry in series [3] is “good”. Further, in series [4], the kinetic solubility result is given as “improved”. In addition, in series [1], the “API mass increase of the salt vs. the free base” value is listed as 53%. Besides, the period of stability result in series [2] (setting [6]) is listed as “at least 1 month”. For the same compound, the hygroscopicity entry in series [5] is on record as “non-hygroscopic”.
`CNCc1ccc(-c2[nH]c3cc(F)cc4c3c2CCNC4=O)cc1` [Crystalline Form C of Rucaparib base, 8-fluoro-2-{4-[(methylamino)methyl]phenyl}-1,3,4,5-tetrahydro-6H-azepino[5,4,3-cd]indol-6-one]: the kinetic solubility entry in series [4] is recorded as “improved”. The “API mass increase of the salt vs. the free base” value in series [1] is listed as “no API mass increase”. In series [2] (setting [6]), the period of stability result is given as “at least 1 month”. Further, the hygroscopicity result in series [5] was “non-hygroscopic”.
The matching figures for `CNCc1ccc(-c2[nH]c3cc(F)cc4c3c2CCNC4=O)cc1` [Crystalline Form I of Rucaparib base, 8-fluoro-2-{4-[(methylamino)methyl]phenyl}-1,3,4,5-tetrahydro-6H-azepino[5,4,3-cd]indol-6-one]: “improved”, “no API mass increase”, “at least 1 month” and “non-hygroscopic”.
As for `CNCc1ccc(-c2[nH]c3cc(F)cc4c3c2CCNC4=O)cc1` [Crystalline Form IV of Rucaparib Hemi-Edisylate] [8-fluoro-2-{4-[(methylamino)methyl]phenyl}-1,3,4,5-tetrahydro-6H-azepino[5,4,3-cd]indol-6-one Hemi-Edisylate], the compressibility properties entry in series [3] is given as “good”. Moreover, the kinetic solubility result in series [4] is given as “improved”. For the same compound, the “API mass increase of the salt vs. the free base” value in series [1] is listed as 9%. Further, in series [2] (setting [6]), the period of stability result was “at least 1 month”. In addition, the hygroscopicity result in series [5] is listed as “non-hygroscopic”.
